Here are results for three compounds from patent US20030134884A1, “Neovascularization inhibitors” (priority 2000, published 2003).

By melting point is commonly meant the temperature, or range, at which the solid turns liquid.

Series [1] relates to Human Microvascular Endothelial Cells (HMVE). Description: human microvascular endothelial cell growth inhibitory assay (Alamar Blue). The format is cell-based. Conditions: 72 h, cultured 3 days, 2% bovine fetal serum, Alamar Blue fluorescence, control well = 100%, read-out: IC50 (concentration showing 50% growth inhibitory activity). The method, then: The angiogenesis inhibitory action of compound (II) and an insulin sensitizer other than compound (II) was determined by a human microvascular endothelial cell growth inhibitory assay method. Human microvascular endothelial cells [Human Microvascular Endothelial Cells (HMVE), (produced by KURABO INDUSTRIES LTD., Japan)] (2×10^4/ml medium, 0.1 ml/well) in MCDB107 medium (GIBCO, US) containing 2% bovine fetal serum was dispensed to a 96 well collagen-coated microplate (produced by SUMITOMO BAKELITE CO., LTD., Japan) and a dimethylformamide (DMF) solution containing various test compounds was diluted and added to the test group. The cells were cultured at 37° C. in 5% CO2 for 3 days. Alamar Blue was added to each well and reacted at 37° C. for 4 hr. Using a fluorometer (Fluoroskan Ascent, produced by LabSystems, US), the fluorescence intensity was measured and the cell count of the well was compared with that of control. Taking the cell count of the control well as 100%, the concentration (IC50) showing 50% growth inhibitory activity was calcualted.
(The colour change of resazurin is a common sign of viable cells or microbes.)

For `Cc1oc(-c2ccccc2)nc1COc1ccc(CO/N=C(\CCC(=O)O)c2ccccc2)cc1` [compound (7), E-4-[4-(5-methyl-2-phenyl-4-oxazolylmethoxy)benzyloxyimino]-4-phenylbutyric acid], the IC50 in series [1] was found to be 23 µM.
In the case of `Cc1c(C)c2c(c(C)c1O)CCC(C)(COc1ccc(CC3SC(=O)NC3=O)cc1)O2` (stereo not shown) [compound (B), 5[[4-[(3,4-dihydro-6-hydroxy-2,5,7,8-tetramethyl-2H-1-benzopyran-2-yl)methoxy]phenyl]methyl]-2,4-thiazolidinedione], in series [1], the IC50 amounted to 107 µM.
The compound `Cc1sc(-c2ccccc2)nc1COc1ccc(CCC[C@H]2OC(=O)NC2=O)cc1` [compound (D), (R)-(+)-5-[3-[4-[(5-methyl-2-phenyl-4-thiazolyl)methoxy]phenyl]propyl]-2,4-oxazolidinedione] displayed a melting point of 130 to 131 °C. In addition, in series [1], the IC50 amounted to 496 µM.
